Entries after “also recorded” stand apart in the source; their conditions may differ.
Tests used:
[1] = tested on: splicing of the Globin-SL8-intron gene product in B16F10 cells; assay: qRT-PCR of unspliced/spliced globin-SL8-intron RNA, B16F10; assay type: cell-based, mouse; conditions: 15 μM isoginkgetin, 35 μM IP2 or 35 μM M2P2, 48 hours
Description: (§1) RNA was extracted and qRT-PCR was performed with primers amplifying the unspliced (intron) and the spliced (exon) globin-SL8-intron RNA. Data are given as mean ±SEM of the ratio of 2^−ΔΔCt intron and 2^−ΔΔCt exon of at least three independent experiments. […] Data are express as mean ±SEM of the percentage of viable cells compared to the control condition of at least three independent experiments. *P<0.05, **P<0.01, ***P<0.001 (unpaired student t test).
(§2) In addition, it has been shown that cancer cells can acquire deficiencies in the splicing machinery that benefit their growth, for example by preventing the expression of tumor suppressor genes.

[2] = tested on: B16F10 globin-SL8-intron (B16F10 GI) tumor; assay: Tumor challenge, B16F10 globin-SL8-intron in immunocompetent C57BL/6 mice; assay type: in vivo, mouse; conditions: 18 mg/kg intraperitoneally, days 5, 10 and 15
Description: (§3) (A) Experimental settings. Growth of (B) sarcoma MCA205 or (C) melanoma B16F10 cells that both stably express the globin-SL8-intron construct or (D) MCA205 Wild Type (WT) or (E) B16F10 WT cells that were subcutaneously inoculated on the flank of immunocompetent C57BL/6 mice injected intraperitoneally with 12 mg/kg or 18 mg/kg of isoginkgetin at days 5, 10 and 15 after inoculation. Tumor size was assessed every 3 to 4 days until reaching the established ethical endpoints. Each line represents the tumor size in area (mm^2) of 6 mice in each group. Size in area (mm^2) of (F) MCA205 globin-SL8-intron, (G) B16F10 globin-SL8-intron, (H) MCA205 WT or (I) B16F10 WT tumors subcutaneously inoculated on the flank of immunodeficient Nu/Nu Nude mice injected intraperitoneally with 18 mg/kg of isoginkgetin at days 5, 10 and 15 after inoculation. Data are presented at the day before the endpoints are reached.
Data are given as mean ±SEM. *P<0.05, **P<0.01, ***P<0.001 (unpaired student t test). […] Tumor size was assessed every 3 to 4 days until reaching the established ethical endpoints. […]
C57B1/6J female mice are obtained from Harlan. […] Area of the tumor is recorded every 3 to 4 days until day 27. […] Results are expressed as mean ±SEM. *p<0.05, **P<0.01, ***P<0.001 (ANOVA with Tukey's multiple comparison test comparing all groups).

[3] = tested on: H2-K^b molecules at the cell surface of B16F10 cells; assay: Flow cytometry of H2-K^b expression, B16F10; assay type: cell-based, mouse
Excerpt: Flow cytometry analyses of H2-K^b expression on MCA205 and B16F10 cells treated with (A) isoginkgetin. Flow cytometry analyses of transiently expressed H2-K^b expression on A375, A549 and MRC5 cells treated with (B) isoginkgetin.

[4] = tested on: splicing of the Globin-SL8-intron gene product in MCA205 cells; assay: qRT-PCR of unspliced/spliced globin-SL8-intron RNA, MCA205; assay type: cell-based, mouse; conditions: 15 μM isoginkgetin, 35 μM IP2 or 35 μM M2P2, 48 hours
Description: as §1, §2

[5] = tested on: B16F10 globin-SL8-intron tumors; assay: Tumor challenge, B16F10 globin-SL8-intron in immunodeficient Nu/Nu nude mice; assay type: in vivo, mouse; conditions: 18 mg/kg intraperitoneally, days 5, 10 and 15
Description: as §3
Each line represents the tumor size in area (mm^2) of at least 6 mice in each group. The C right panel represents the tumor size at day 27. […]
Inventors then assessed the requirement of the immune response for isoginkgetin to reduce tumor growth Immunodeficient Nu/Nu nude mice were inoculated subcutaneously with either MCA205 or B16F10 cells that stably express the Globin-intron-SL8 or WT, and were treated with the same settings as previously described (FIG. 9A). […]

[6] = MTT assay on MRC5 cell line; assay type: cell-based; conditions: human, MRC5 fibroblast cells, read-out: % cell viability (±SEM)
Description: MCA205 mouse sarcoma cell line is cultured at 37° C. under 5% CO2 in RPMI 1640 medium (Life Technologies) in the presence of 1% glutamine, 1% sodium pyruvate, 1% non-essential amino-acids, 1% penicillin/streptomycin and 10% FBS (Life Technologies) under standard conditions. B16F10 mouse melanoma cell line, MRC5 human fibroblast cell line and A375 human melanoma cell line are cultured at 37° C. under 5% CO2 in DMEM medium (Life Technologies) containing 1% glutamine, 1% penicillin/streptomycin and 10% FCS under standard conditions. A549 human lung carcinoma cell line is cultured at 37° C. under 5% CO2 in DMEM/F12+Glutamax I in the presence of 1% Hepes, 1% sodium pyruvate and 10% FBS under standard conditions. Stable MCA205-Globin-SL8-intron cell line are cultured under the same condition as MCA205 cell line with additional 2 mg/ml G418 (geneticin from Life Technologies) for selection. Stable B16F10-Globin-SL8-intron cell line are cultured under the same condition as B16F10 cell line with additional 2 mg/ml G418 (geneticin from Life Technologies) for selection. The SL8/Kb-specific (B3Z) T-cell reporter hybridoma are cultured at 37° C. under 5% CO2 in RPMI 1640 medium (Life Technologies) in the presence of 1% glutamine, 0.1% β-galactosidase, 1% penicillin/streptomycin and 10% FCS under standard conditions. […]

With `COc1ccc(-c2cc(=O)c3c(OC)cc(OP(=O)([O-])[O-])c(-c4cc(-c5cc(=O)c6c(OC)cc(OP(=O)([O-])[O-])cc6o5)ccc4OC)c3o2)cc1.[Na+].[Na+].[Na+].[Na+]` [IM2P2] the “splicing of Globin-SL8-intron RNA (ratio unspliced/spliced, qRT-PCR)” value [1] was “does not impact splicing; also recorded: no impact”, the tumor growth [2] was “had no effect on growth” and the “expression of the H2-K^b molecules at the cell surface” value [3] was “is not affected”. The “splicing of Globin-SL8-intron RNA (ratio unspliced/spliced, qRT-PCR)” value [4] was “has a strong impact on splicing; also recorded: strongly inhibits the splicing”.
In the case of `COc1ccc(-c2cc(=O)c3c(O)cc(O)c(-c4cc(-c5cc(=O)c6c(O)cc(O)cc6o5)ccc4OC)c3o2)cc1` [Isoginkgetin, isoginkgetin], the tumor growth [5] is reported as “No effect”, the viability at 2.5 µM ([6]; MRC5, 2.5 μM) is reported as 100% and the viability at 6.25 µM ([6]; MRC5, 6.25 μM) is reported as 100%.
